In BindingDB's records for doi:10.1016/0960-894X(95)00399-E (1995):

Columns and labels:
[1] = biological target: Gastrin/cholecystokinin type B receptor (Cavia porcellus); experiment: Binding affinity towards Cholecystokinin type B receptor was measured by displacement of [125I]CCK from guinea pig cortical membranes
[2] = biological target: Gastrin/cholecystokinin type B receptor (Cavia porcellus); experiment: as above; remark: listed apart in the source

Row | Compound | IC50 [1] [nM] | IC50 [2] [nM]
1 | CN1C(=O)C(NC(=O)Nc2cccc(C(=O)O)c2)N=C(C2CCCCC2)c2ccccc21 (stereo not drawn) [3-[3-(5-Cyclohexyl-1-methyl-2-oxo-2,3-dihydro-1H-benzo[e][1,4]diazepin-3-yl)-ureido]-benzoic acid] | 1.4 | –
2 | CC(=O)NS(=O)(=O)c1cccc(NC(=O)NC2N=C(C3CCCCC3)c3ccccc3N(C)C2=O)c1 (stereo not drawn) [N-Acetyl-3-[3-(5-cyclohexyl-1-methyl-2-oxo-2,3-dihydro-1H-benzo[e][1,4]diazepin-3-yl)-ureido]-benzenesulfonamide] | 0.36 | –
3 | CN1C(=O)[C@H](NC(=O)Nc2cccc(C(=O)NS(=O)(=O)c3ccccc3)c2)N=C(C2CCCCC2)c2ccccc21 [N-{3-[3-((R)-5-Cyclohexyl-1-methyl-2-oxo-2,3-dihydro-1H-benzo[e][1,4]diazepin-3-yl)-ureido]-benzoyl}-benzenesulfonamide] | – | 0.73
